The source of these data is ChEMBL document CHEMBL4665696, “Highly Modified Lanostane Triterpenes from the Wood-Rot Basidiomycete Ganoderma colossus: Comparative Chemical Investigations of Natural and Artificially Cultivated Fruiting Bodies and Mycelial Cultures” (J Nat Prod, 2020).

The structures appear in SMILES notation. Values after ≈ are worked out from the molar mass of the structure shown.

One assay deals with Vero. Nature of the assay: Cytotoxicity against African green monkey Vero cells by green fluorescent protein-based assay. In kind it is cell-based. Conditions: Chlorocebus sabaeus.
The test system of a further assay is Plasmodium falciparum. Nature of the assay: Antimalarial activity against Plasmodium falcipuram K1 by microculture radioistope technique. The assay is classed as functional, organism-based.
The test system of assay [1] is Mycobacterium tuberculosis. The experiment in a line: Antitubercular activity against Mycobacterium tuberculosis H37Ra by green fluorescent protein microplate assay. In kind it is functional.

`CC1=CC[C@@H]([C@@H](C)[C@H]2CC[C@@]3(C)C4=C(CC[C@]23C)[C@@]2(C)CCC(=O)C(C)(C)[C@@H]2CC4)OC1=O`: the IC50 with Vero is greater than 50 µg/mL; in the assay on Plasmodium falciparum, 3.6 µg/mL (≈ 7.95 µM). Besides, the MIC in assay [1] is greater than 50 µg/mL.

Regarding `CC(=O)O[C@@H](C/C=C(/C)C(=O)O)[C@@H](C)[C@H]1CC[C@@]2(C)C3=CC[C@@H](C(C)(C)OC(C)=O)[C@]4(CCC(=O)OC4)C3=CC[C@]12C`, the results for the IC50 with Vero and with Plasmodium falciparum were greater than 50 µg/mL and 5.8 µg/mL (≈ 9.92 µM), respectively. In assay [1], this compound returned an MIC greater than 50 µg/mL.

For `Cl.O[C@@H](c1cc(C(F)(F)F)nc2c(C(F)(F)F)cccc12)[C@H]1CCCCN1`, the IC50 with Plasmodium falciparum is greater than 10 µg/mL.

On to `CC(=O)OC[C@@]1(CCC(=O)O)C2=C(CC[C@H]1C(C)(C)O)[C@]1(C)CC[C@H]([C@H](C)[C@H](C/C=C(/C)C(=O)O)OC(C)=O)[C@@]1(C)CC2`, for which the IC50 was greater than 50 µg/mL in the assay with Vero and greater than 10 µg/mL in the assay with Plasmodium falciparum. In assay [1], the MIC was greater than 50 µg/mL.

The compound `Cc1c2ccncc2c(C)c2c1[nH]c1ccccc12` [ELLIPTECINE] returned an IC50 in the assay on Vero of 0.87 µg/mL (≈ 3.53 µM).

Turning to `CC(=O)OC[C@@]1(CCC(=O)O)C2=C(CC[C@H]1C(C)(C)O)[C@]1(C)CC[C@H]([C@H](C)[C@@H]3CC=C(C)C(=O)O3)[C@@]1(C)CC2`, the IC50 with Vero is greater than 50 µg/mL; in the assay with Plasmodium falciparum, 8.2 µg/mL (≈ 15.1 µM). In assay [1], this compound gave an MIC of 25 µg/mL (≈ 45.9 µM).

Take `CC(=O)OC[C@]12CCC(=O)OC(C)(C)[C@@H]1CCC1=C2CC[C@]2(C)[C@@H]([C@H](C)[C@H](C/C=C(/C)C(=O)O)OC(C)=O)CC[C@@]12C`: the half-inhibitory concentration (IC50) was greater than 50 µg/mL in the assay on Vero and greater than 10 µg/mL in the assay with Plasmodium falciparum. The compound further displayed an MIC in assay [1] greater than 50 µg/mL.

As to `CC(=O)OC[C@]12CCC(=O)OC(C)(C)[C@@H]1CC=C1C2=CC[C@]2(C)[C@@H]([C@H](C)[C@H](C/C=C(/C)C(=O)O)OC(C)=O)CC[C@@]12C`, the IC50 with Vero is greater than 50 µg/mL; with Plasmodium falciparum, greater than 10 µg/mL. The minimal inhibitory concentration (MIC) in assay [1] was greater than 50 µg/mL.

The compound `C[C@H]1[C@@H](O)O[C@@H]2O[C@@]3(C)CC[C@H]4[C@H](C)CC[C@@H]1[C@@]24OO3` [ARTENIMOL] yielded an IC50 with Plasmodium falciparum greater than 10 µg/mL.

Regarding `NNC(=O)c1ccncc1` [ISONIAZID], the MIC in assay [1] is 0.047 µg/mL (≈ 0.343 µM).

As for `CC1=CC[C@@H]([C@@H](C)[C@H]2CC[C@@]3(C)C4=C(CC[C@]23C)[C@]23CC[C@H](OC2=O)C(C)(C)[C@@H]3CC4)OC1=O`, the values for the IC50 in the assay on Vero and with Plasmodium falciparum were greater than 50 µg/mL and greater than 10 µg/mL, respectively. Also, the MIC in assay [1] was greater than 50 µg/mL.

Regarding `CC(=O)O[C@@H]1C[C@H]([C@H](C)[C@@H]2CC=C(C)C(=O)O2)[C@@]2(C)CCC3=C(CC[C@H]4C(C)(C)OC(=O)C=C[C@]45C[C@H]35)[C@]12C`, the figures for the IC50 in the assay on Vero and with Plasmodium falciparum were 8.5 µg/mL (≈ 15.8 µM) and 0.001 µg/mL (≈ 0.00186 µM), respectively. 25 µg/mL (≈ 46.6 µM) was the least that counted as inhibitory in assay [1] (MIC).

In the case of `CC(=O)O[C@@H](C/C=C(/C)C(=O)O)[C@@H](C)[C@H]1CC[C@@]2(C)C3=C(C=C4C=CC(=O)OC(C)(C)[C@@H]4CC3)CC[C@]12C`, the IC50 in the assay on Vero worked out at 49.2 µg/mL (≈ 93.8 µM); in the assay on Plasmodium falciparum, 0.03 µg/mL (≈ 0.0572 µM). This compound gave an MIC in assay [1] greater than 50 µg/mL.

Take `CC(=O)OC[C@@]1(CCC(=O)O)C2=CC[C@]3(C)[C@@H]([C@H](C)[C@H](C/C=C(/C)C(=O)O)OC(C)=O)CC[C@@]3(C)C2=CC[C@H]1C(C)(C)O`: the IC50 in the assay with Vero is greater than 50 µg/mL; with Plasmodium falciparum, 1.4 µg/mL (≈ 2.32 µM). Also, in assay [1], the MIC was greater than 50 µg/mL.

For `CC(=O)OC[C@]12CC[C@H](O)C(C)(C)[C@@H]1CCC1=C2CC[C@]2(C)[C@@H]([C@H](C)[C@H](C/C=C(/C)C(=O)O)OC(C)=O)CC[C@@]12C`, the figures for the IC50 in the assay on Vero and with Plasmodium falciparum were greater than 50 µg/mL and greater than 10 µg/mL, respectively. Also, the minimum inhibitory concentration (MIC) in assay [1] is greater than 50 µg/mL.

As for `CC(=O)OC[C@@]1(CCC(=O)O)C2=C(CC[C@H]1C(C)(C)O)[C@]1(C)CC[C@H]([C@H](C)[C@H]3OC(=O)C(C)=C[C@@H]3O)[C@@]1(C)CC2`, the values for the IC50 with Vero and in the assay with Plasmodium falciparum were greater than 50 µg/mL and 5 µg/mL (≈ 8.92 µM), respectively. Also, the minimum inhibitory concentration (MIC) in assay [1] is greater than 50 µg/mL.

For orientation: IC50 means the point on the concentration scale where inhibition reaches its midpoint. By MIC is commonly meant the smallest concentration in the dilution series that meets the test's criterion for growth inhibition.
